Assay [1] deals with prostate cancer cell line LNCaP. Nature of the assay: LNCaP cell culture, growth and death (FIG. 5, FIG. 10). In kind it is cell-based. To be noted: for number of cancer cells / anticancer effect: 10 mM, 7 days (FIG. 10). How it is done:
A dose dependent decrease in cell density was clearly detected with 2-deoxyribitol treatment, but not with ribitol treatment.
Less than 50% of cells and 10% of cells were detected with the treatment of 10 mM and 50 mM 2-deoxyribitol, respectively.

The subject of assay [2] is MCF7 cells. Briefly: Mammosphere formation (FIG. 4). The format is cell-based. To be noted: MCF7, Vitamin C 50 μM 5 days, then normal medium 6 days. The method, then: Cells were also treated with Vitamin C (VitC) at a concentration of 50 μM for 5 days (5d) and then returned to normal medium (NM) for 6 days (d6), without (lower left panel) or with 2-deoxyribitol (Drug, lower right panel). The formation of cancer mammospheres, considered to be cancer stem cell-rich population, can be seen in culture without Drug treatment, and with Vitamin C treatment only. Drug treatment greatly reduces to eliminates the formation of cancer mammospheres.
To examine mammosphere formation, MCF7 cells were grown for 11 days with or without 2-deoxyribitol (drug) treatment (FIG. 4, top panels). In addition, MCF7 cells were treated with Vitamin C at the concentration of 50 μM for 5 days and then returned to normal medium (“NM”) for 6 days (FIG. 4, lower panels).

The subject of assay [3] is breast cancer cell line MCF7. Briefly: MCF7 cell culture, growth and death (FIG. 2). The format is cell-based. To be noted: MCF7, 0.4-50 mM, 3 day treatment. The method, then: From left-top-to-bottom: Control, 0.4 mM Drug, 2 mM rib, and 10 mM Drug; From right-top-to-bottom: 0.4 mM rib; 2 mM Drug; 10 mM rib; and 50 mM Drug.
However, this effect was not related to the enhanced expression of glycosylation of α-DG.

Assay [4] has as its system alpha dystroglycan (α-DG). To be noted: cited from earlier work.
Where [5] appears, read: Pei Lu et al., (2020) Sci Rep 10(1):4935.

The values that follow come from patent publication US12257214B2, “Compositions and methods comprising deoxy-pentitols” (The Charlotte Mecklenburg Hospital Authority, priority 2021, dated 2025).

Read-outs that look alike come from different tables or passages of the source.

For `O=CC[C@H](O)[C@H](O)CO` [2-deoxyribose, reference compound], the “number of cancer cells / anticancer effect” value in assay [1] is reported as “did not show the same anticancer effects”. Turning to `O=C1O[C@H]([C@@H](O)CO)C(O)=C1O` [Vitamin C, reference compound], the “number of mammospheres, Vitamin C then normal medium” value in assay [2] was “greatly increased the number of well-defined mammospheres”. `OC[C@@H](O)[C@@H](O)[C@@H](O)CO` [ribitol, reference compound]: in assay [3], the “effect on cell growth, death and morphology” value was “no clear effect on cell growth and morphology”. Besides, the “number of cancer cells / anticancer effect” value in assay [1] was “did not show the same anticancer effects”. Moreover, the “effect on cell growth, death and cell density” value in assay [1] (2-50 mM, 4 days) is “slightly increased”. Besides, the “glycosylation of α-DG” value in assay [4] (some cancer cells including MCF7, background statement) is “enhances glycosylation of α-DG”. Turning to `O=P(O)(O)OC[C@@H](O)[C@@H](O)[C@@H](O)CO` [ribitol-5-phosphate], in assay [4] (setting [5]), the “glycosylation of α-DG” value is on record as “showed an effect of enhancing glycosylation of α-DG”. As for `O=C[C@H](O)[C@H](O)[C@H](O)CO` [ribose], the “glycosylation of α-DG” value in assay [4] (setting [5]) is “showed an effect of enhancing glycosylation of α-DG”. In the case of `O=C(CO)[C@H](O)[C@H](O)CO` [ribulose], the “glycosylation of α-DG” value in assay [4] (setting [5]) is recorded as “showed an effect of enhancing glycosylation of α-DG”.
